Results published in PMC6357153 (Viruses, 2019).
Converted amounts (≈) assume the structure as drawn.

Experiment: physchem

Question: What does the source list for `CC[C@H](C)[C@H](NC(=O)[C@H](Cc1ccc(O)cc1)NC(=O)[C@H](CO)NC(=O)[C@H](CC(=O)O)NC(=O)[C@H](CC(N)=O)NC(=O)[C@H](CC(C)C)NC(=O)[C@H](CCC(N)=O)NC(=O)[C@H](CCCCN)NC(=O)[C@@H](NC(=O)[C@@H](NC(=O)[C@H](CCC(=O)O)NC(=O)[C@H](CCC(N)=O)NC(=O)[C@H](CC(C)C)NC(=O)[C@H](CCSC)NC(=O)[C@H](C)NC(=O)[C@H](CCSC)NC(=O)[C@H](CCC(=O)O)NC(=O)[C@H](CC(=O)O)NC(=O)[C@H](CO)NC(=O)[C@H](CC(C)C)NC(=O)[C@H](CC(=O)O)NC(=O)[C@H](CC(C)C)NC(=O)[C@H](CC(C)C)NC(=O)[C@@H](NC(=O)[C@@H](NC(=O)[C@H](CC(N)=O)NC(=O)[C@@H](NC(=O)[C@H](CCCCN)NC(=O)[C@H](CO)NC(=O)[C@@H](NC(=O)[C@H](CCC(=O)O)NC(=O)[C@H](C)NC(=O)[C@H](Cc1ccccc1)NC(=O)[C@H](CC(N)=O)NC(=O)[C@@H]1CCCN1C(=O)CN)[C@@H](C)CC)[C@@H](C)CC)[C@@H](C)O)[C@@H](C)O)C(C)C)C(C)C)C(=O)O` [HKU4-HR2P1]?
Answer: solubility (pH 7.2, aqueous buffer): 1570 µM (≈ 6340 µg/mL); solubility (water): 651 µM (≈ 2630 µg/mL)

Question: For `CC[C@H](C)[C@H](NC(=O)[C@H](Cc1ccc(O)cc1)NC(=O)[C@H](CO)NC(=O)[C@H](CC(=O)O)NC(=O)[C@H](CC(N)=O)NC(=O)[C@H](CC(C)C)NC(=O)[C@H](CCC(N)=O)NC(=O)[C@H](CCCCN)NC(=O)[C@@H](NC(=O)[C@@H](NC(=O)[C@H](CCC(=O)O)NC(=O)[C@H](CCC(N)=O)NC(=O)[C@H](CC(C)C)NC(=O)[C@H](CCSC)NC(=O)[C@H](C)NC(=O)[C@H](CCSC)NC(=O)[C@H](CCC(=O)O)NC(=O)[C@H](CC(=O)O)NC(=O)[C@H](CO)NC(=O)[C@H](CC(C)C)NC(=O)[C@H](CC(=O)O)NC(=O)[C@H](CC(C)C)NC(=O)[C@H](CC(C)C)NC(=O)[C@@H](NC(=O)[C@@H](NC(=O)[C@H](CC(N)=O)NC(=O)[C@@H](NC(=O)[C@H](CCCCN)NC(=O)[C@H](CO)NC(=O)[C@@H](NC(=O)[C@@H](N)CCC(=O)O)[C@@H](C)CC)[C@@H](C)CC)[C@@H](C)O)[C@@H](C)O)C(C)C)C(C)C)C(=O)N[C@@H](CC(=O)O)C(=O)N[C@@H](CC(C)C)C(=O)N[C@@H](CCCCN)C(=O)N[C@@H](CCC(=O)O)C(=O)N[C@@H](CC(C)C)C(=O)O` [HKU4-HR2P2], which solubility (pH 7.2, aqueous buffer) is on record?
Answer: 2920 µM (≈ 12100 µg/mL)

Question: What about the solubility (water) of the same compound?
Answer: 150 µM (≈ 623 µg/mL)

Question: Which solubility (pH 7.2, aqueous buffer) does the source give for `CC[C@H](C)[C@H](NC(=O)[C@H](Cc1ccc(O)cc1)NC(=O)[C@H](CO)NC(=O)[C@H](CC(=O)O)NC(=O)[C@H](CC(N)=O)NC(=O)[C@H](CC(C)C)NC(=O)[C@H](CCC(N)=O)NC(=O)[C@H](CCCCN)NC(=O)[C@@H](NC(=O)[C@@H](NC(=O)[C@H](CCC(=O)O)NC(=O)[C@H](CCC(N)=O)NC(=O)[C@H](CC(C)C)NC(=O)[C@H](CCSC)NC(=O)[C@H](C)NC(=O)[C@H](CCSC)NC(=O)[C@H](CCC(=O)O)NC(=O)[C@H](CC(=O)O)NC(=O)[C@H](CO)NC(=O)[C@H](CC(C)C)NC(=O)[C@H](CC(=O)O)NC(=O)[C@@H](N)CC(C)C)C(C)C)C(C)C)C(=O)N[C@@H](CC(=O)O)C(=O)N[C@@H](CC(C)C)C(=O)N[C@@H](CCCCN)C(=O)N[C@@H](CCC(=O)O)C(=O)N[C@@H](CC(C)C)C(=O)NCC(=O)N[C@@H](CC(N)=O)C(=O)N[C@@H](Cc1ccc(O)cc1)C(=O)N[C@H](C(=O)N[C@@H](Cc1ccc(O)cc1)C(=O)N[C@@H](Cc1ccc(O)cc1)C(=O)N[C@@H](CC(N)=O)C(=O)N[C@@H](CCCCN)C(=O)N[C@@H](Cc1c[nH]c2ccccc12)C(=O)O)[C@@H](C)O` [HKU4-HR2P3] here?
Answer: 118 µM (≈ 513 µg/mL)

Question: What about the solubility (water) of the same compound?
Answer: 1670 µM (≈ 7270 µg/mL)

Question: For `CC[C@H](C)[C@H](NC(=O)[C@H](Cc1ccc(O)cc1)NC(=O)[C@H](CO)NC(=O)[C@H](CCC(=O)O)NC(=O)[C@H](CC(N)=O)NC(=O)[C@H](CC(C)C)NC(=O)[C@H](C)NC(=O)[C@H](CCCCN)NC(=O)[C@@H](NC(=O)[C@@H](NC(=O)[C@H](CCC(N)=O)NC(=O)[C@H](CCC(N)=O)NC(=O)[C@H](CC(C)C)NC(=O)[C@H](CO)NC(=O)[C@H](CC(C)C)NC(=O)[C@H](CCSC)NC(=O)[C@H](CCC(=O)O)NC(=O)[C@H](Cc1ccc(O)cc1)NC(=O)[C@@H](NC(=O)[C@H](CC(C)C)NC(=O)[C@H](CC(=O)O)NC(=O)[C@H](CC(C)C)NC(=O)[C@H](CC(C)C)NC(=O)[C@@H](NC(=O)[C@@H](NC(=O)[C@H](CC(N)=O)NC(=O)[C@@H](NC(=O)[C@H](CCC(N)=O)NC(=O)[C@@H](NC(=O)[C@H](CC(C)C)NC(=O)[C@@H](N)CO)[C@@H](C)O)[C@@H](C)CC)[C@@H](C)O)[C@@H](C)O)[C@@H](C)O)C(C)C)C(C)C)C(=O)N[C@@H](CC(=O)O)C(=O)N[C@@H](CC(C)C)C(=O)N[C@@H](CCCCN)C(=O)N[C@@H](CCC(=O)O)C(=O)N[C@@H](CC(C)C)C(=O)O` [MERS-HR2P, reference compound], which solubility (pH 7.2, aqueous buffer) is on record?
Answer: 105 µM (≈ 435 µg/mL)

Question: And the solubility (water)?
Answer: 29 µM (≈ 120 µg/mL)
